Tests used:
[1] = test system: relevant ATCC QC organisms; conditions: S. aureus ATCC 29213; CLSI established QC range; cited from earlier work
[2] = test system: vancomycin-intermediate Staphylococcus aureus; assay: Broth microdilution MIC (Example 6); assay type: cell-based
Method: (§1) Test Compounds: The test agents BisEDT (MB-1-B3; Lot No. ED268-1-11-01), MB-2B, and MB-6 were stored at room temperature, in the dark, until assayed. The solvent and diluent for the test agents was DMSO (Sigma; St. Louis, MO; Lot No. SHBB9319V) and the prepared stock concentration was 6,464 μg/mL (101× the final test concentration).
(§2) Test compounds were evaluated at a concentration range of 0.06-64 μg/mL. For Gram-negative test isolates, amikacin and ceftazidime (alone and with clavulanate at a fixed concentration of 4 μg/mL) were evaluated over a concentration range of 0.06-64 μg/mL; meropenem and levofloxacin were evaluated over a concentration range of 0.008-8 μg/mL. For the testing of S. aureus, clindamycin, daptomycin, levofloxacin and vancomycin were evaluated at a concentration range of 0.008-8 μg/mL; linezolid was tested from 0.03-32 μg/mL.
(§3) Media: Cation-adjusted Mueller Hinton broth (CAMHB; BD; Lot No. 8190586) was used as the medium for testing (2, 3). For testing daptomycin, calcium was supplemented with […] Ca^2+, resulting in a final concentration of […] Ca^2+ (2, 3).
(§4) MIC Assay Procedure: MIC values were determined using a broth microdilution procedure described by CLSI (2, 3). Automated liquid handlers (Multidrop 384, Labsystems, Helsinki, Finland; Biomek 2000 and Biomek F X, Beckman Coulter, Fullerton CA) were used to conduct serial dilutions and liquid transfers.
(§5) To prepare the drug mother plates, which would provide the serial drug dilutions for the replicate daughter plates, the wells of columns 2 through 12 of standard 96-well microdilution plates (Costar 3795) were filled with 150 μl of the appropriate diluent for each row of drug. The test articles and comparator compounds (300 μl at 101× the highest concentration to be tested) were dispensed into the appropriate wells in column 1. The Biomek 2000 was then used to make 2-fold serial dilutions in the mother plates from column 1 through column 11. The wells of column 12 contained no drug and served as the organism growth control wells for the assay.
(§6) The daughter plates were loaded with 190 μL per well of RPMI using the Multidrop 384. The test panels were prepared on the Biomek FX instrument which transferred 2 μL of drug solution from each well of a mother plate to the corresponding well of each daughter plate in a single step.
(§7) A standardized inoculum of each test organism was prepared per CLSI methods to equal a 0.5 McFarland standard, followed by a dilution of 1:20. The plates were then inoculated with 10 μL of the diluted inoculum using the Biomek 2000 from low to high drug concentration resulting in a final concentration of approximately 5×10^5 CFU/mL.
(§8) Plates were stacked 3-4 high, covered with a lid on the top plate, placed into plastic bags, and incubated at 35° C. for 16 to 20 hr (vancomycin was read for S. aureus after 24 hr incubation time). The MIC was recorded as the lowest concentration of drug that inhibited visible growth of the organism.

[3] = test system: non-speciated Corynebacterium; assay: MIC of baseline clinical isolates (Example 8); assay type: cell-based; conditions: Corynebacterium non-speciated baseline isolates (N′ = 2), central laboratory, mITT
Method: (§9) Microbiology was assessed on Day 1 and at the time of any subsequent surgical procedure at the index site. Samples were collected from the infected bone site or involved tissue adjacent to any implant(s), swabs of the deep infection site, and the superficial tissue/wound closure/sinus tract site. Isolation and identification of aerobic and anerobic bacteria was conducted at a central microbiology laboratory (IHMA, Schaumburg, IL) and susceptibility of the isolates to MBN-101 (BisEDT) and comparator agents was performed per Clinical and Laboratory Standards Institute (CLSI). Parallel sets of samples were analyzed by the local clinical site laboratory to guide patient antibiotic treatment.

Streptococcus oralis = assay: MIC of baseline clinical isolates (Example 8); assay type: cell-based; conditions: Streptococcus oralis baseline isolates (N′ = 1), central laboratory, mITT
Method: as §9

Corynebacterium jeikeium = assay: MIC of baseline clinical isolates (Example 8); assay type: cell-based; conditions: Corynebacterium jeikeium baseline isolates (N′ = 2), central laboratory, mITT
Method: as §9

[4] = test system: Corynebacterium resistens; assay: MIC of baseline clinical isolates (Example 8); assay type: cell-based; conditions: Corynebacterium resistens baseline isolates (N′ = 1), central laboratory, mITT
Method: as §9

[5] = test system: Corynebacterium amycolatum; assay: MIC of baseline clinical isolates (Example 8); assay type: cell-based; conditions: Corynebacterium amycolatum baseline isolates (N′ = 1), central laboratory, mITT
Method: as §9

Dermabacter hominis = assay: MIC of baseline clinical isolates (Example 8); assay type: cell-based; conditions: Dermabacter hominis baseline isolates (N′ = 1), central laboratory, mITT
Method: as §9

[6] = test system: Staphylococcus lugdunensis; assay: MIC of baseline clinical isolates (Example 8); assay type: cell-based; conditions: Staphylococcus lugdunensis baseline isolates (N′ = 3), central laboratory, mITT
Method: (§10) Microbiology was assessed on Day 1 and at the time of any subsequent surgical procedure at the index site. Samples were collected from the infected bone site or involved tissue adjacent to any implant(s), swabs of the deep infection site, and the superficial tissue/wound closure/sinus tract site. […] Parallel sets of samples were analyzed by the local clinical site laboratory to guide patient antibiotic treatment.

Staphylococcus pasteuri = assay: MIC of baseline clinical isolates (Example 8); assay type: cell-based; conditions: Staphylococcus pasteuri baseline isolates (N′ = 1), central laboratory, mITT
Method: as §10

S. aureus (MRSA, MSSA) = assay: MIC of baseline clinical isolates (Example 8); assay type: cell-based; conditions: Staphylococcus aureus, MRSA baseline isolates (N′ = 4), central laboratory, mITT
Method: as §10

[7] = test system: Staphylococcus haemolyticus; assay: MIC of baseline clinical isolates (Example 8); assay type: cell-based; conditions: Staphylococcus haemolyticus baseline isolates (N′ = 1), central laboratory, mITT
Method: as §10

S. epidermidis = assay: MIC of baseline clinical isolates (Example 8); assay type: cell-based; conditions: Staphylococcus epidermidis baseline isolates (N′ = 5), central laboratory, mITT
Method: as §10

Staphylococcus arlettae = assay: MIC of baseline clinical isolates (Example 8); assay type: cell-based; conditions: Staphylococcus arlettae baseline isolates (N′ = 1), central laboratory, mITT
Method: as §10

Staphylococcus hominis = assay: MIC of baseline clinical isolates (Example 8); assay type: cell-based; conditions: Staphylococcus hominis baseline isolates (N′ = 1), central laboratory, mITT
Method: as §10

[8] = test system: relevant ATCC QC organisms; assay: Broth microdilution MIC, QC (Example 6); assay type: cell-based; conditions: S. aureus ATCC 29213
Method: as §1, §2
Organisms: The test organisms as shown in Tables 11-15 consisted of clinical isolates from the Micromyx (MMX) repository and reference strains from the American Type Culture Collection (ATCC; Manassas, VA), National Collection of Type Cultures (NCTC; Public Health England, Salisbury, UK), the Network on Antimicrobial Resistance in Staphylococcus aureus (NARSA; BEI Resources, Manassas, VA), and the Centers for Disease Control and Prevention (CDC; Atlanta, GA). The test organisms were maintained frozen at −80° C. Prior to testing, the isolates were cultured on Tryptic Soy Agar with 5% sheep blood (BAP; Becton Dickson [BD]/BBL; Sparks, MD; Lot Nos. 9080650 and 9108563) at 35° C. Relevant ATCC quality control (QC) organisms (Table 16) were included during testing in accordance with CLSI guidelines (3). Further details on the genetic characterization of the isolates where available can be found in Table 17.
as §3, §4, §5, §6, §7, §8

[9] = S. aureus isolate NRS 1 (hVISA)
[10] = S. aureus isolate NRS 24 (hVISA)

SMILES | MIC QC range (in parentheses) [1] | MIC [2, 9] [µg/mL] | MIC ([2]; S. aureus isolate NRS 2) [µg/mL] | MIC ([2]; S. aureus isolate NRS 3) [µg/mL] | MIC ([2]; S. aureus isolate NRS 4) [µg/mL] | MIC ([2]; S. aureus isolate NRS 13) [µg/mL] | MIC ([2]; S. aureus isolate NRS 18) [µg/mL] | MIC ([2]; S. aureus isolate NRS 22) [µg/mL] | MIC [2, 10] [µg/mL] | MIC ([2]; S. aureus isolate NRS 27) [µg/mL] | Mean MIC [3] [µg/mL] | n (% resistant) [3] | Mean MIC (Streptococcus oralis) [µg/mL] | n (% resistant) (Streptococcus oralis) | n (% resistant) (Corynebacterium jeikeium) | Mean MIC [4] [µg/mL] | n (% resistant) [4] | n (% resistant) [5] | Mean MIC (Dermabacter hominis) [µg/mL] | n (% resistant) (Dermabacter hominis) | other results
CC(=O)NC[C@H]1CN(c2ccc(N3CCOCC3)c(F)c2)C(=O)O1 [LZD] | (1-4) μg/mL | 1 | 4 | 1 | 1 | 2 | 1 | 1 | 2 | 2 | 0.18 | 0 (0.0) n (%) | 1.00 | 0 (0.0) n (%) | 0 (0.0) n (%) | 0.25 | 0 (0.0) n (%) | 0 (0.0) n (%) | 0.50 | 0 (0.0) n (%) | Mean MIC (Corynebacterium jeikeium): 0.38 µg/mL; Mean MIC [5]: 0.12 µg/mL; Mean MIC [6]: 0.83 µg/mL; n (% resistant) [6]: 0 (0.0) n (%); Mean MIC (Staphylococcus pasteuri): 1.00 µg/mL; n (% resistant) (Staphylococcus pasteuri): 0 (0.0) n (%); Mean MIC (S. aureus (MRSA, MSSA)): 1.25 µg/mL; n (% resistant) (S. aureus (MRSA, MSSA)): 0 (0.0) n (%); Mean MIC [7]: 1.00 µg/mL; n (% resistant) [7]: 0 (0.0) n (%); Mean MIC (S. epidermidis): 0.80 µg/mL; n (% resistant) (S. epidermidis): 0 (0.0) n (%); Mean MIC (Staphylococcus arlettae): 2.00 µg/mL; n (% resistant) (Staphylococcus arlettae): 0 (0.0) n (%); Mean MIC (Staphylococcus hominis): 0.50 µg/mL; n (% resistant) (Staphylococcus hominis): 0 (0.0) n (%); MIC [8]: 4 µg/mL
CN[C@H](CC(C)C)C(=O)N[C@H]1C(=O)N[C@@H](CC(N)=O)C(=O)N[C@H]2C(=O)N[C@H]3C(=O)N[C@H](C(=O)N[C@H](C(=O)O)c4cc(O)cc(O)c4-c4cc3ccc4O)[C@H](O)c3ccc(c(Cl)c3)Oc3cc2cc(c3O[C@@H]2O[C@H](CO)[C@@H](O)[C@H](O)[C@H]2O[C@H]2C[C@](C)(N)[C@H](O)[C@H](C)O2)Oc2ccc(cc2Cl)[C@H]1O [VAN] | (0.5-2) μg/mL | 4 | 0.5 | 8 | 4 | 2 | 4 | 4 | 2 | 2 | 0.12 | 0 (0.0) n (%) | 0.50 | 0 (0.0) n (%) | 0 (0.0) n (%) | 1.00 | 0 (0.0) n (%) | 0 (0.0) n (%) | 0.25 | 0 (0.0) n (%) | Mean MIC [6]: 0.83 µg/mL; n (% resistant) [6]: 0 (0.0) n (%); Mean MIC (Staphylococcus pasteuri): 1.00 µg/mL; n (% resistant) (Staphylococcus pasteuri): 0 (0.0) n (%); Mean MIC (S. aureus (MRSA, MSSA)): 1.25 µg/mL; n (% resistant) (S. aureus (MRSA, MSSA)): 0 (0.0) n (%); Mean MIC [7]: 1.00 µg/mL; Mean MIC (S. epidermidis): 150 µg/mL; n (% resistant) (S. epidermidis): 0 (0.0) n (%); Mean MIC (Staphylococcus arlettae): 2.00 µg/mL; n (% resistant) (Staphylococcus arlettae): 0 (0.0) n (%); Mean MIC (Staphylococcus hominis): 2.00 µg/mL; n (% resistant) (Staphylococcus hominis): 0 (0.0) n (%); MIC [8]: 0.5 µg/mL

— patent US20240285571A1, “METHODS OF TREATING BONE INFECTIONS” (MICROBION CORPORATION, priority 2020, published 2024)
